# Several values for one entry are separate records, joined by “and”; a condition that tells them apart may be missing. Equal entries are not always repeated. Inconclusive results and toxic doses are left out.
# Tested on: P388 leukemia ip, CD2F1 mice, survival T/C
# Assay: NCI In Vivo Anticancer Drug Screen. Data for tumor model P388 Leukemia (intraperitoneal) in CD2F1 (CDF1) mice
# Details: endpoint: median survival time, higher = longer survival
# Experimental: The antitumor activity of compounds was measured in mice bearing transplantable tumors. Survival or tumor size were measured and the results are expressed as the measurement made in the treated group (T) divided by the measurement made in the vehicle treated control group (C). The tumor model used in this assay is P388 Leukemia (intraperitoneal) in CD2F1 (CDF1) mice
# [1] = dose: 25.0 mg/kg/injection, schedule: Q01DX009 (ip), vehicle: saline with Tween-80
# [2] = dose: 50.0 mg/kg/injection, schedule: Q01DX009 (ip), vehicle: saline with Tween-80
# [3] = dose: 50.0 mg/kg/injection, schedule: Q01DX005 (ip), vehicle: Klucel (hydroxypropylcellulose) (HPC)
# [4] = dose: 100.0 mg/kg/injection, schedule: Q01DX009 (ip), vehicle: saline with Tween-80
# [5] = dose: 200.0 mg/kg/injection, schedule: Q01DX009 (ip), vehicle: saline with Tween-80
# [6] = dose: 100.0 mg/kg/injection, schedule: Q04DX003 (ip), vehicle: Klucel (hydroxypropylcellulose) (HPC)
# [7] = dose: 200.0 mg/kg/injection, schedule: Q04DX003 (ip), vehicle: Klucel (hydroxypropylcellulose) (HPC)
# [8] = dose: 400.0 mg/kg/injection, schedule: Q04DX003 (ip), vehicle: Klucel (hydroxypropylcellulose) (HPC)
# [9] = dose: 60.0 mg/kg/injection, schedule: Q01DX005 (ip), vehicle: saline with Tween-80
# [10] = dose: 120.0 mg/kg/injection, schedule: Q01DX005 (ip), vehicle: saline with Tween-80
# [11] = dose: 240.0 mg/kg/injection, schedule: Q01DX005 (ip), vehicle: saline with Tween-80
# [12] = dose: 100.0 mg/kg/injection, schedule: Q01DX001 (ip), vehicle: Klucel (hydroxypropylcellulose) (HPC)
# [13] = dose: 200.0 mg/kg/injection, schedule: Q01DX001 (ip), vehicle: Klucel (hydroxypropylcellulose) (HPC)
# [14] = dose: 50.0 mg/kg/injection, schedule: Q01DX009 (ip), vehicle: saline
# [15] = dose: 100.0 mg/kg/injection, schedule: Q01DX009 (ip), vehicle: saline
# [16] = dose: 200.0 mg/kg/injection, schedule: Q01DX009 (ip), vehicle: saline
# [17] = dose: 100.0 mg/kg/injection, schedule: Q01DX005 (ip), vehicle: Klucel (hydroxypropylcellulose) (HPC)
# [18] = dose: 200.0 mg/kg/injection, schedule: Q01DX005 (ip), vehicle: Klucel (hydroxypropylcellulose) (HPC)
compound,measurement,setting,value
C[n+]1ccc(NC(=O)c2ccc(NC(=O)c3cccc(C(=O)Nc4ccc(C(=O)Nc5cc[n+](C)cc5)cc4)c3)cc2)cc1,T/C,"dose: 6.25 mg/kg/injection, schedule: Q04DX003 (ip), vehicle: saline with Tween-80",112 % of control
same,T/C,"dose: 12.5 mg/kg/injection, schedule: Q04DX003 (ip), vehicle: saline with Tween-80",120 % of control
same,T/C,[1],159 % of control
same,T/C,[2],195 % of control
same,T/C,"dose: 50.0 mg/kg/injection, schedule: Q04DX003 (ip), vehicle: saline with Tween-80",154 % of control
same,T/C,"dose: 66.0 mg/kg/injection, schedule: Q04DX003 (ip), vehicle: saline with Tween-80",170 % of control
CN(C)CC/C=C1\c2ccccc2Sc2ccc(Cl)cc21,T/C,"dose: 12.5 mg/kg/injection, schedule: Q01DX005 (ip), vehicle: Klucel (hydroxypropylcellulose) (HPC)",107 % of control and 112 % of control
same,T/C,"dose: 25.0 mg/kg/injection, schedule: Q01DX005 (ip), vehicle: Klucel (hydroxypropylcellulose) (HPC)",117 % of control and 120 % of control
same,T/C,[3],117 % of control
c1ccc(Cn2ccnc2CSCCSCc2nccn2Cc2ccccc2)cc1,T/C,"dose: 30.0 mg/kg/injection, schedule: Q01DX005 (ip), vehicle: Klucel (hydroxypropylcellulose) (HPC)",101 % of control
same,T/C,"dose: 60.0 mg/kg/injection, schedule: Q01DX005 (ip), vehicle: Klucel (hydroxypropylcellulose) (HPC)",99 % of control and 90 % of control
same,T/C,"dose: 120.0 mg/kg/injection, schedule: Q01DX005 (ip), vehicle: Klucel (hydroxypropylcellulose) (HPC)",99 % of control and 105 % of control
same,T/C,"dose: 240.0 mg/kg/injection, schedule: Q01DX005 (ip), vehicle: Klucel (hydroxypropylcellulose) (HPC)",97 % of control
CCOC(=O)C(=O)C1CC(c2ccccc2)=NNC1=O (configuration not stated),T/C,[2],99 % of control
same,T/C,[4],103 % of control
same,T/C,[5],96 % of control
COc1ccc(N2CCN(CC(O)COc3cc4c(c5c3CCCC5)CCCC4)CC2)cc1 (configuration not stated),T/C,[6],104 % of control
same,T/C,[7],94 % of control
same,T/C,[8],108 % of control
CN1CCOP(=O)(Oc2ccccc2)N1 (configuration not stated),T/C,[9],103 % of control
same,T/C,[10],99 % of control
same,T/C,[11],100 % of control
CCCOC1=C(N2CC2)C(=O)C(OCCC)=C(N2CC2)C1=O,T/C,"dose: 0.89 mg/kg/injection, schedule: Q01DX009 (ip), vehicle: saline with Tween-80",106 % of control
same,T/C,"dose: 3.0 mg/kg/injection, schedule: Q01DX009 (ip), vehicle: saline with Tween-80",179 % of control
same,T/C,"dose: 4.0 mg/kg/injection, schedule: Q01DX009 (ip), vehicle: saline with Tween-80",181 % of control
same,T/C,"dose: 6.0 mg/kg/injection, schedule: Q01DX009 (ip), vehicle: saline with Tween-80",186 % of control
same,T/C,"dose: 6.25 mg/kg/injection, schedule: Q01DX009 (ip), vehicle: saline with Tween-80",190 % of control
same,T/C,"dose: 9.0 mg/kg/injection, schedule: Q01DX009 (ip), vehicle: saline with Tween-80",109 % of control
C[N+]1(C)N=C([O-])N(c2ccccc2C(F)(F)F)C1=O,T/C,"dose: 12.5 mg/kg/injection, schedule: Q01DX009 (ip), vehicle: saline with Tween-80",99 % of control
same,T/C,[1],99 % of control
same,T/C,[2],106 % of control
COc1ccccc1-n1c(=O)c(N=Nc2ccccc2Cl)c(O)n(-c2ccccc2Cl)c1=S,T/C,[12],101 % of control
same,T/C,[13],100 % of control
same,T/C,"dose: 400.0 mg/kg/injection, schedule: Q01DX001 (ip), vehicle: Klucel (hydroxypropylcellulose) (HPC)",101 % of control
CC(N)CN1C=NC(C)C1 (configuration not stated),T/C,[14],97 % of control
same,T/C,[15],103 % of control
same,T/C,[16],94 % of control
Cc1ccc(S(=O)(=O)Nc2cc(S(=O)(=O)O)c(N)c3c2C(=O)c2ccccc2C3=O)cc1,T/C,[14],86 % of control
same,T/C,[15],97 % of control
same,T/C,[16],101 % of control
CCCCNC1c2ccccc2CCC1O (configuration not stated),T/C,[12],97 % of control
same,T/C,"dose: 100.0 mg/kg/injection, schedule: Q04DX002 (ip), vehicle: Klucel (hydroxypropylcellulose) (HPC)",118 % of control
same,T/C,[13],99 % of control
COC(=N)c1nc2c(N)nc(-c3ccccc3)nc2[nH]c1=O,T/C,[4],98 % of control
same,T/C,[5],98 % of control
same,T/C,"dose: 400.0 mg/kg/injection, schedule: Q01DX009 (ip), vehicle: saline with Tween-80",97 % of control
CCOC(=O)N1CC2C=CC1C(C(=O)OC)=C2C(=O)OC (configuration not stated),T/C,"dose: 50.0 mg/kg/injection, schedule: Q01DX009 (ip), vehicle: Klucel (hydroxypropylcellulose) (HPC)",109 % of control
same,T/C,"dose: 100.0 mg/kg/injection, schedule: Q01DX009 (ip), vehicle: Klucel (hydroxypropylcellulose) (HPC)",113 % of control
same,T/C,"dose: 200.0 mg/kg/injection, schedule: Q01DX009 (ip), vehicle: Klucel (hydroxypropylcellulose) (HPC)",113 % of control
Cc1csc(=S)n1C,T/C,[14],92 % of control
same,T/C,[15],95 % of control
C[n+]1c(-c2ccc(/C=N/Nc3ccnc(N/N=C/c4ccc(-c5cn6ccccc6[n+]5C)cc4)n3)cc2)cn2ccccc21,T/C,"dose: 30.0 mg/kg/injection, schedule: Q01DX005 (ip), vehicle: saline with Tween-80",150 % of control
same,T/C,[9],88 % of control
O=C1CC2(C(=O)O1)C1C(=O)OC(=O)C1C1C=CC=NN12 (configuration not stated),T/C,[1],90 % of control
same,T/C,[2],93 % of control
same,T/C,[4],93 % of control
CCCCCCCOC(=O)c1cc2cc(C(CC)C(CC)c3ccc(O)cc3)ccc2oc1=O (configuration not stated),T/C,[9],105 % of control
same,T/C,[10],92 % of control
same,T/C,[11],95 % of control
N#C/C=C1\NC(=O)CS1,T/C,[2],95 % of control
same,T/C,[4],100 % of control
same,T/C,[5],95 % of control
O=C(c1ccccc1)[C@@]12COc3ccccc3[C@@H]1ON=C2c1ccccc1,T/C,[3],89 % of control
same,T/C,[17],88 % of control
same,T/C,[18],91 % of control
O=c1oc(-c2ccccc2)nc2cc(Cl)ccc12,T/C,[6],100 % of control
same,T/C,[7],90 % of control
same,T/C,[8],107 % of control
CCC(/C=N/N=C(N)N)=N\N=C(N)N,T/C,"dose: 50.0 mg/kg/injection, schedule: Q01DX005 (ip), vehicle: saline",110 % of control
same,T/C,"dose: 100.0 mg/kg/injection, schedule: Q01DX005 (ip), vehicle: saline",100 % of control
CC(C)(C)OC(=O)NC(CSCc1ccccc1)C(=O)ON1C(=O)CCC1=O (configuration not stated),T/C,[3],100 % of control
same,T/C,[17],98 % of control
same,T/C,[18],94 % of control
Cc1cc(O)c2c(c1)C(=O)C(c1c(C)cc3c(c1O)C(=O)C1OC1C3=O)=CC2=O (configuration not stated),T/C,"dose: 0.78 mg/kg/injection, schedule: Q01DX005 (ip), vehicle: Klucel (hydroxypropylcellulose) (HPC)",91 % of control
same,T/C,"dose: 1.56 mg/kg/injection, schedule: Q01DX005 (ip), vehicle: Klucel (hydroxypropylcellulose) (HPC)",106 % of control
same,T/C,"dose: 3.12 mg/kg/injection, schedule: Q01DX005 (ip), vehicle: Klucel (hydroxypropylcellulose) (HPC)",113 % of control
same,T/C,"dose: 6.25 mg/kg/injection, schedule: Q01DX005 (ip), vehicle: Klucel (hydroxypropylcellulose) (HPC)",100 % of control
Cc1nc(Cl)c(C)c(=O)[nH]1,T/C,[14],165 % of control
same,T/C,[15],166 % of control
C(=N\N1CCCCCC1)/c1c2ccccc2cc2ccccc12,T/C,"dose: 50.0 mg/kg/injection, schedule: Q01DX005 (ip), vehicle: Klucel + Tween-80",89 % of control
same,T/C,"dose: 100.0 mg/kg/injection, schedule: Q01DX005 (ip), vehicle: Klucel + Tween-80",90 % of control
same,T/C,"dose: 200.0 mg/kg/injection, schedule: Q01DX005 (ip), vehicle: Klucel + Tween-80",92 % of control

# Reference: PubChem BioAssay AID330 (DTP/NCI, 2004)
